Values of other authors as cited in patent publication US20210322405A1, “COMPOSITIONS AND METHODS FOR TREATING CANCER” (Washington University, priority 2020, published 2021).

Columns and labels:
GBM patients = conditions: clinical trial; Butowski et al., 2016
[1] = test system: ALK-inhibitor resistant ALK-driven patient-derived cell lines; conditions: SHP099 in combination with the ALK inhibitor ceritinib; Dardaei et al., 2018
G6PD = conditions: dose-dependent manner; Bernstock et al., 2017

SMILES: FC(F)(F)c1ccc(CNc2ccc(Cc3c[nH]c4ncc(Cl)cc34)cn2)cn1 [PLX3397]
- clinical benefit for GBM patients (GBM patients): did not show clear benefit

SMILES: CC1(N)CCN(c2cnc(-c3cccc(Cl)c3Cl)c(N)n2)CC1 [SHP099]
- Shp2-activation-mediated resistance to ALK inhibitor [1]: overcome

SMILES: CC[C@@]1(O)C(=O)OCc2c1cc1n(c2=O)Cc2cc3c(CN(C)C)c(O)ccc3nc2-1 [topotecan]
- activity of G6PD (G6PD): decreases
